Like-named read-outs stand apart in the source and are kept apart here. Marks after values point to notes of the source that are not given here. Peptide text beside a SMILES is read from it.
Assays:
[1] = test system: mice with liver injury induced by carbon tetrachloride; assay: acute liver injury of mice induced by carbon tetrachloride; type: in vivo, Kunming mice; conditions: for serum ALT activity / serum AST activity: blood 12 h after CCl4; for serum ALT activity / serum AST activity / GSH-PX activity of liver tissue / MDA content of liver tissue: x ± s, n = 12; for GSH-PX activity of liver tissue / MDA content of liver tissue: liver homogenate
Experimental: According to random number table, 60 male Kunming mice were divided into a normal control group, a model control group, a bifendate group, a heptapeptide large dose group and a heptapeptide small dose group, and the latter two groups were administered subcutaneously at 0.17 mg/kg and 0.085 mg/kg, respectively, once every two days for 7 d; the bifendate group was intragastric administered at 100 mg/kg once daily for 7 d; and the normal control group and model control group were administered subcutaneously with the same volume of physiological saline; after 1 h after the last administration, except for the normal control group, other groups were given olive oil solution comprising 0.15% carbon tetrachloride at 5 mL/kg by intraperitoneal injection. Each group was fasted but not restraint from water. Blood was taken from eyeball after 12 h, and the serum was separated for use. The mice were killed after the blood was taken, then dissected and the liver were taken out and homogenized for use. For mice from each group, the ALT, AST activities in the serum, and GSH-Px activity and MDA content in liver tissue were measured according to the kit instruction, and all data were expressed as mean±standard deviation (x±SD), and analysis of variance was used for the hypothesis test of mean value differences between each group.

rats with liver fibrosis = assay: CCl4 liver fibrosis model of rats; type: in vivo, SD rats; conditions: for collogen area of liver tissue / serum ALT level / serum AST level: 8 weeks, x ± s, n = 12
Experimental: 2. Methods: 48 rats were randomly divided into a control group, a model group, a heptapeptide large dose group and a heptapeptide small dose group, each group contains 12 rats. CCI4was formulated into 40% solution with olive oil, and the solution was then injected subcutaneously to the animals at 5 ml/kg twice a week for 8 weeks; the intervention group with GAGPHGG was given the heptapeptide subcutaneously (the concentrations was 0.12 mg/kg and 0.06 mg/kg, respectively, once every two days, 8 weeks) while the model was setting up. The animals of each group were killed at 48 h after the last injection of CCI4, and then serum and liver tissue were taken for detection. The serum ALT, AST and TGFβ1 level were measured according to the kit instruction, and the liver tissue sample was fixed with neutral formalin solution and imbedded with paraffin. 5 ttm tissue section was made by using glass slide coated with polylysine, and it was then stained with HE and Masson triplication collogen for histopathological examination.

[2] = test system: duck hepatitis B virus (DHBV); type: in vivo, Beijing ducks; conditions: for A (3 d after administration was terminated), serum DHBV-DNA level: 3 d after stop; for A (3 d after administration was terminated), serum DHBV-DNA level / A (5 d after administration), serum DHBV-DNA level / A (10 d after administration), serum DHBV-DNA level / A (before administration), serum DHBV-DNA level: x ± s, n = 6; for A (5 d after administration), serum DHBV-DNA level: day 5 of administration; for A (10 d after administration), serum DHBV-DNA level: day 10 of administration; for A (before administration), serum DHBV-DNA level: baseline before administration, absorbance 490 nm
Experimental: 2.1 DHBV infection: Beijing ducks of one-day-old were administered from leg tibia (iv) with high DHBV-DNA positive duck serum. Blood was taken 7 d after infection, followed by the serum being separated and kept at -70° C.
2.2 experiment for pharmaceutical treatment: the DHBV infected ducks were divided into groups randomly, and for the heptapeptide administration groups, 0.5 mg/Kg and 1 mg/Kg were administered by subcutaneous injection, once every two days for 10 d, respectively. As for the virus control group, physiological saline was substituted for drugs. […] Venous blood was taken from the duck leg tibia before administration, on day 5 of administration, on day 10 of administration and 3 d after the administration was stopped. The serum was separated and kept at -70° C. for inspection.
2.3 detecting method: the duck serum for inspection above mentioned was taken and the dynamic level of DHBV-DNA in the serum was detected by simultaneous spotting each batch. DHBV-DNA probe was tagged with 32 p according to the instructions of nick translation kits, and then dot blot hybridization with the duck serum was carried out. The spots on the film were detected by radioautography, and the absorbance (A) (490 nm) was measured. Then density of serum DHBV-DNA was calculated by using the A value of hybridization spots as the level of DHBV-DNA in sample.
2.4 efficacy calculation: the x±s of serum DHBV-DNA levels at different time point for each group was calculated, and it is carried out to compare the states before and after administration for each group by using paired t-test. The inhibition ratio of DHBV-DNA was calculated and the dynamic change of the duck serum DHBV-DNA inhibition ratio for each group was compared. The administration groups were compared with the virus control group by using group t-test. The DHBV-DNA inhibition ratio=(A value before administration-A value after administration)/A value before administrationx100%.

[3] = 100 mg/kg intragastric once daily for 7 d
[4] = 0.085 mg/kg s.c. once every two days for 7 d
[5] = 0.17 mg/kg s.c. once every two days for 7 d
[6] = large dose and small dose groups, P<0.01
[7] = 0.06 mg/kg s.c. once every two days
[8] = 0.12 mg/kg s.c. once every two days
[9] = heptapeptide large dose, P<0.01
[10] = 0.5 mg/kg s.c. once every two days

SMILES: COC(=O)c1cc(OC)c2c(c1-c1c(C(=O)OC)cc(OC)c3c1OCO3)OCO2 [biphenyldicarboxylate, bifendate, reference compound]
- serum ALT activity [1, 3]: 92.36 ± 35.27 U/L
- serum AST activity [1, 3]: 156.24 ± 34.12 U/L
- GSH-PX activity of liver tissue [1, 3]: 296.82 ± 18.31 µmol/g
- MDA content of liver tissue [1, 3]: 5.29 ± 1.25 µmol/g

SMILES: C[C@H](NC(=O)CN)C(=O)NCC(=O)N1CCC[C@H]1C(=O)N[C@@H](Cc1c[nH]cn1)C(=O)NCC(=O)NCC(=O)O [heptapeptide, Gly-Ala-Gly-Pro-His-Gly-Gly] (H-GAGPHGG-OH; N-terminus assumed)
- serum ALT activity [1, 4]: 123.24 ± 19.73 U/L
- serum AST activity [1, 4]: 186.97 ± 37.56 U/L
- GSH-PX activity of liver tissue [1, 4]: 267.18 ± 32.13 µmol/g
- MDA content of liver tissue [1, 4]: 6.48 ± 1.65 µmol/g
- serum ALT activity [1, 5]: 86.52 ± 28.72 U/L
- serum AST activity [1, 5]: 148.62 ± 31.25 U/L
- GSH-PX activity of liver tissue [1, 5]: 308.28 ± 38.54 µmol/g
- MDA content of liver tissue [1, 5]: 2.75 ± 1.36 µmol/g
- serum ALT, AST activities compared with model control group ([1]; large dose (0.17 mg/kg) and small dose (0.085 mg/kg) groups, P <0.01): declined significantly
- liver tissue GSH-Px activities compared with model control group [1, 6]: significantly higher than that of the model control group
- liver tissue MDA content compared with model control group [1, 6]: significantly lower than that of the model control group
- protection for acute liver injury (conclusion) ([1]; mice, carbon tetrachloride): presents protection for the acute liver injury resulted from carbon tetrachloride
- collogen area of liver tissue (rats with liver fibrosis; [7]): 380.82 ± 78.89 μm^2
- serum ALT level (rats with liver fibrosis; [7]): 148.24 ± 32.52 U/L
- serum AST level (rats with liver fibrosis; [7]): 180.35 ± 28.49 U/L
- collogen area of liver tissue (rats with liver fibrosis; [8]): 138.12 ± 62.58** μm^2
- serum ALT level (rats with liver fibrosis; [8]): 96.37 ± 35.12 U/L
- serum AST level (rats with liver fibrosis; [8]): 108.75 ± 42.21 U/L
- mean area of liver collagen compared with model group (rats with liver fibrosis; [9]): also decreased significantly
- serum TGFβ1 level compared with model group (rats with liver fibrosis; [9]): decreased significantly
- serum TGFβ1 level and liver collagen area compared with model group (rats with liver fibrosis; heptapeptide small dose group): had a decreasing trend, but not statistically significant
- ALT and AST levels compared with model control group (rats with liver fibrosis; large dose (0.12 mg/kg) and small dose (0.06 mg/kg) groups, P<0.01): significantly declined
- anti-liver fibrosis effect (conclusion) (rats with liver fibrosis; rats, CCl4): has some anti-liver fibrosis effect
- A (3 d after administration was terminated), serum DHBV-DNA level ([2]; 0.5 mg/kg s.c. once every two days for 10 d): 1.184 ± 0.19
- A (5 d after administration), serum DHBV-DNA level [2, 10]: 1.239 ± 0.16
- A (10 d after administration), serum DHBV-DNA level [2, 10]: 1.198 ± 0.18
- inhibition of duck hepatitis B virus (conclusion) ([2]; 1 mg/kg): can inhibit duck hepatitis B virus to some extent
- A (3 d after administration was terminated), serum DHBV-DNA level ([2]; 1 mg/kg s.c. once every two days for 10 d, P < 0.01 vs control): 0.884 ± 0.16
- A (5 d after administration), serum DHBV-DNA level ([2]; 1 mg/kg s.c. once every two days): 1.204 ± 0.21
- A (10 d after administration), serum DHBV-DNA level ([2]; 1 mg/kg s.c. once every two days, P < 0.01 vs control): 0.893 ± 0.13
- A (before administration), serum DHBV-DNA level ([2]; heptapeptide 0.5 mg/kg s.c. once every two days for 10 d): 1.286 ± 0.12
- A (before administration), serum DHBV-DNA level ([2]; heptapeptide 1 mg/kg s.c. once every two days for 10 d): 1.274 ± 0.14
